Literature values, collected in US11000594B2, “Composition comprising an organic liquid diluent and a cellulose ether of very low viscosity” (Dow Global Technologies LLC, priority 2012, dated 2021).
Converted amounts (≈) assume the structure as drawn.

water solubility: 8.54 µg/mL (≈ 24.2 µM)
Compound: COC1=CC(=O)C[C@@H](C)[C@]12Oc1c(Cl)c(OC)cc(OC)c1C2=O [Griseofulvin]
